The record followed here is the NIST ThermoML archive (doi:10.1021/je1002048).

Usually mass density stands for mass per unit of volume.

± gives the expanded uncertainty stated by the source.

The conditions of data set [1]: Liquid; for Normal boiling temperature: Ebulliometric method (Recirculating still).
Data set [2] is described as follows: excess molar enthalpy (molar enthalpy of mixing); xn = mol fraction of the nth substance listed. The note with it: 303.15 K, 101 kPa, Liquid, Calvet calorimetry.

Regarding `CCO` [ethanol], in data set [1], the Normal boiling temperature stood at 78.2 ± 0.1 °C.

As to `c1ccncc1` [pyridine], the mass density in data set [1] (298.15 K, 101.33 kPa, Pycnometric method) was found to be 980.8 ± 1 kg/m3. Besides, in data set [1], the Normal boiling temperature is 116 ± 0.1 °C.

As to `c1ccncc1` [pyridine] + CCO, the excess molar enthalpy was -0.000359 ± 0.000191 kcal/mol in data set [2] (x2 = 0.032); -0.00153 ± 0.000191 kcal/mol in data set [2] (x2 = 0.082); -0.00308 ± 0.000239 kcal/mol in data set [2] (x2 = 0.127); -0.00545 ± 0.000311 kcal/mol in data set [2] (x2 = 0.192); -0.00827 ± 0.000406 kcal/mol in data set [2] (x2 = 0.251); -0.0122 ± 0.00055 kcal/mol in data set [2] (x2 = 0.351). The excess molar enthalpy in data set [2] (x2 = 0.447) is -0.0172 ± 0.000741 kcal/mol; in data set [2] (x2 = 0.502), -0.0185 ± 0.000789 kcal/mol; in data set [2] (x2 = 0.572), -0.0189 ± 0.000813 kcal/mol; in data set [2] (x2 = 0.653) it was -0.0152 ± 0.000669 kcal/mol; in data set [2] (x2 = 0.734), -0.0126 ± 0.000574 kcal/mol; in data set [2] (x2 = 0.874), -0.00598 ± 0.000311 kcal/mol.
